From patent publication EP2319852A1, “Triphenylphosphine derivatives” (Universitat Autònoma De Barcelona, priority 2009, dated 2011)
Values belong to the compound of their own block, whether it stands above or below them.

How the values were obtained:
[1] = Aerial oxidation of the phosphines in aqueous solution, followed by 31P{1H} NMR; assay type: physicochemical; conditions: for Oxidation percentage over time: distilled water, 5.10^-2 mM, open to air, vigorous stirring; for oxidize in the air: 5·10^-2 mM aqueous solution, room temperature
Experimental: 4. Aerial oxidation of the phosphines in aqueous solution
Solutions in distilled water (1 mL, 5.10^-2 mM ) of the phosphines represented below were prepared with the aim of comparing their inertness against aerial oxidation. The solutions were kept opened to air under vigorous stirring for 120 h. Aliquots were taken and analyzed by ^31P{^1H} NMR in order to quantify the oxidation progress.

[2] = Determination of water solubility of the sodium salts of the phosphines; assay type: physicochemical; conditions: saturated supernatant evaporated to dryness and weighed
Experimental: 3. Determination of water solubility of trifluoromethylated sulfonated phosphines of Formula (I)
Oversaturated aqueous solutions of the sodium salts of the phosphines of Formula (I) were prepared. The supernatant solution was ultracentrifugated, and then filtered through a nylon filter, a measured weight of this solution was evaporated to dryness and the solid residue was weighed.

solubility thermodynamic [2]: 30 mg/mL
SMILES: O=S(=O)(O)c1cccc(P(c2cccc(S(=O)(=O)O)c2)c2ccccc2C(F)(F)F)c1 [Phosphine 3]

solubility thermodynamic [2]: 2 to 12 mg/mL
SMILES: O=S(=O)(O)c1cccc(P(c2cc(C(F)(F)F)cc(C(F)(F)F)c2)c2cc(C(F)(F)F)cc(C(F)(F)F)c2)c1 [Phosphine 5]

solubility thermodynamic [2]: 2 to 12 mg/mL
SMILES: O=S(=O)(O)c1cccc(P(c2ccccc2C(F)(F)F)c2ccccc2C(F)(F)F)c1 [Phosphine 6]

solubility thermodynamic [2]: > 1000 mg/mL
SMILES: O=S(=O)(O)c1cccc(P(c2ccccc2)c2cc(C(F)(F)F)cc(C(F)(F)F)c2)c1 (centres unmarked) [Phosphine 8]

The next lines start with the compound.

SMILES: O=S(=O)([O-])c1cccc(P(c2ccccc2)c2cccc(S(=O)(=O)[O-])c2)c1.[Na+].[Na+] [Na2TPPDS]
Oxidation percentage over time ([1]; 0 h): 0% | oxidize in the air ([1]; 16 h): about 5% | Oxidation percentage over time ([1]; 16 h): 6% | Oxidation percentage over time ([1]; 40 h): 33% | Oxidation percentage over time ([1]; 120 h): 100%

SMILES: O=S(=O)([O-])c1cccc(P(c2ccccc2)c2ccccc2)c1.[Na+] [NaTPPMS, triphenylphosphine monosulfonate]
Oxidation percentage over time ([1]; 0 h): 0% | oxidize in the air ([1]; 16 h): about 5% | Oxidation percentage over time ([1]; 16 h): 4% | Oxidation percentage over time ([1]; 40 h): 25% | Oxidation percentage over time ([1]; 120 h): 68%

SMILES: O=S(=O)(O)c1cccc(P(c2ccc(C(F)(F)F)cc2)c2ccc(C(F)(F)F)cc2)c1 [Phosphine 4]
solubility thermodynamic [2]: 2 to 12 mg/mL

SMILES: O=S(=O)(O)c1cccc(P(c2ccccc2)c2ccc(C(F)(F)F)cc2)c1 (centres unmarked) [Phosphine 7]
solubility thermodynamic [2]: 500 mg/mL

SMILES: O=S(=O)(O)c1cccc(P(c2ccccc2)c2ccccc2C(F)(F)F)c1 (centres unmarked) [Phosphine 9]
solubility thermodynamic [2]: 210 mg/mL
